Twelve compounds from patent US20220153766A1, “CONDENSED TRICYCLIC COMPOUND USED AS KINASE INHIBITOR” (Hangzhou Innogate Pharma Co., Ltd., priority 2019, published 2022) can be followed below.

Like-named read-outs stand apart in the source and are kept apart here.

Broadly, the IC50 is the midpoint of a concentration-inhibition curve. Broadly, the Cmax is the maximum level reached in the sampled fluid or tissue. The Tmax is the time from dosing to the highest level. In general, half-life refers to the time in which the quantity being followed falls by half. Low readings indicate fast loss, high ones slow loss.

The target in one data set is ALK (Homo sapiens, UniProt Q9UM73). In words: ALK kinase activity inhibition, Caliper mobility shift assay, method 1. Format: biochemical. The procedure:
2. ALK Kinase Activity Inhibition Experiment: Method 1: In vitro enzymatic activity of ALK was measured using Caliper mobility shift assay. […] Add 10 μL of 2.5-fold enzyme solution and incubate at room temperature for 10 minutes, then add 10 μL of 2.5-fold substrates (Peptide FAM-P22 and ATP) solution. […] Read conversion rate data on Caliper EZ Reader II (Caliper Life Sciences). Convert the conversion rate into inhibition rate (% inhibition=(max−conversion rate)/(max−min)*100). Max refers to the conversion rate of the DMSO control, and min refers to the conversion rate without enzyme activity. With the compound concentration and inhibition rate on the abscissa and ordinate, draw the curve, use XLFit excel add-in version 5.4.0.8 software to fit the curve and calculate the IC50.

The target in data set [1] is Ba/F3_EGFR del19/T790M/C797S cells (Homo sapiens, UniProt P00533, T790M/C797S, cells depend on it, form not given). Kind of data set: Ba/F3_EGFR (del19-T790M-C797S) cell proliferation inhibition, CTG, method 1. Format: cell-based. The settings on record: 700 cells/well, 72 h, read-out: Ba/F3_EGFR (del19-T790M-C797S) cell proliferation inhibition (IC50 value) Method 1. The procedure:
The cells were cultured in a 37° C., 5% CO2 incubator.
Cell plating and compound treatment: 1) Cells are routinely cultured until the cell saturation is 80%-90%, and when the number reaches the requirement, the cells are collected. 2) Resuspend in the corresponding fresh medium, take a small amount of cells to count, and prepare a cell suspension with a suitable density. 3) Inoculate the cell suspension into a 384-well plate at 700 cells/well, 30 μL per well. 4) Use Echo to add the compound to the corresponding cell well. The maximum starting concentration of the compound is 1-10 μM, 3 folds dilution, 8 concentrations.
CTG method detection: 1) Add 30 μL of CTG reagent (CelltiterGlo kit) to each well, and let it stand for 30 minutes at 37° C. and 5% CO2 in the dark. 2) Use Envision instrument to read the chemiluminescence signal value.
Data analysis: IC50 results are analyzed by GraphPad Prism 6 software. […] X: log value of compound concentration; Y: inhibition rate (% inhibition); inhibition rate (% inhibition)=(blank control well reading−compound well reading)/(blank control well reading−positive control reading)×100.

The target of another data set is MAP4K1 (HPK1) (Homo sapiens, UniProt Q92918). In words: MAP4K1 (HPK1) kinase activity inhibition, Caliper mobility shift assay. Format: biochemical. The following applies: kinase 1.25 nM, ATP 10.1 μM. The procedure:
4. MAP4K1 (HPK1) Kinase Activity Inhibition Experiment: Caliper mobility shift assay was used to detect the inhibitory effect of the compound on MAP4K1 (HPK1) kinase activity. The test concentration of the compound starts at 500 nM, and is diluted 5 folds into 5 concentration points. Use a dispenser Echo 550 to transfer 250 nL 100-fold final concentration of the compound to the target plate 3573, add 10 μL of MAP4K1 (HPK1) kinase solution with a final concentration of 1.25 nM, and incubate for 10 minutes at room temperature (the negative control well contains 10 μL kinase buffer and 250 nL 100% DMSO; the positive control well contains 10 μL kinase solution and 250 nL 100% DMSO). On the kinase MAP4K1 (HPK1), add 15 μL of ATP with a final concentration of 10.1 μM and 3 μM substrate peptide No. 25 mixed solution to react for 120 minutes. Add 30 μL of stop solution containing EDTA to stop the kinase reaction. Use Caliper EZ Reader to read the conversion rate. Inhibition rate %=(Average positive control conversion rate %−Sample conversion rate %/(Average positive control conversion rate %−Average negative control conversion rate %). Among them: negative control wells represent the conversion rate readings without enzyme activity; positive control wells represent the conversion rate readings of wells without compound inhibition. Take the log value of the concentration as the X-axis, and the percentage inhibition rate on the Y-axis. Log (inhibitor) vs. response—Variable slope of analysis software GraphPad Prism 5 was used to fit the curve to obtain the IC50 value of each compound on the enzyme activity. Calculation formula: Y=Bottom+(Top−Bottom)/(1+10 ^((Log IC50−X)*HillSlope)).

A further data set concerns the target EGFR (C797S) (Homo sapiens, UniProt P00533, C797S). Kind of data set: EGFR (C797S) kinase activity inhibition, Lantha screen Assay. Format: biochemical. The settings on record: kinase 10 nM, ATP 0.1 μM. The procedure:
1. EGFR (C797S) Kinase Activity Inhibition Experiment: The Lantha screen Assay method was used to test the inhibitory activity of the compounds at a kinase EGFR (C797S) concentration of 10 nM and an ATP concentration of 0.1 μM. The control samples were Staurosporine. Experimental Steps: […] 2) Control sample Staurosporine and test samples preparation: Staurosporine and the compounds of the embodiment of the present invention are formulated into a gradient concentration solution in 100% DMSO, and diluted to 10% DMSO with the above-mentioned buffer, and added to a 384-well plate. For example, if the initial concentration of the compound is 10 μM, 100% DMSO is used to prepare a 1000 μM solution, and 10 concentration gradients are diluted, and 100 nL solution is transferred to a 384-well plate with Echo*LIQUID HANDLE RS (LABCYTE, USA). […] Transfer 5 μL to the 384-well plate and incubate with the compound for 10-15 minutes. […] Transfer 5 μL to the 384-well plate to initiate the reaction, and incubate at room temperature for 30 minutes. [table] 5) Use TR-Fret dilution buffer to prepare 2-fold detection solution. The final concentration of Antibody is 2 nM and the final concentration of EDTA is 10 mM. Transfer 10 μL of detection solution to the reaction wells of the 384-well plate, shake and mix, and incubate at room temperature for 60 min. 6) Read the ratio of excitation at 340 nm and emission at 520 nm to 495 nm on Envision, and calculate the inhibition rate. 7) Fit IC50 with XL-fit software.

The target in the next data set is EGFR (T790M/L858R/C797S) (Homo sapiens, UniProt P00533, C797S/L858R/T790M). Kind of data set: EGFR (T790M/L858R/C797S) kinase activity inhibition, Caliper mobility shift assay. The following applies: kinase 2.5 nM, ATP 40 μM. Format: biochemical. The procedure: The basic method is the same as ALK activity test method 2. The test concentration of the compound starts at 2 μM, and is diluted 5 folds into 6 (7 for individual compounds) concentration points. […] Add 30 μL of stop solution containing EDTA to stop the kinase reaction. Use Caliper EZ Reader to read the conversion rate. Inhibition rate %=(Average positive control conversion rate %−Sample conversion rate %/(Average positive control conversion rate %−Average negative control conversion rate %). Among them: negative control wells represent the conversion rate readings without enzyme activity; positive control wells represent the conversion rate readings of wells without compound inhibition. Take the log value of the concentration as the X-axis, and the percentage inhibition rate on the Y-axis. Log (inhibitor) vs. response—Variable slope of analysis software GraphPad Prism 5 was used to fit the curve to obtain the IC50 value of each compound on the enzyme activity. Calculation formula: Y=Bottom+(Top−Bottom)/(1+10^((Log IC50−X)*HillSlope)).

The nature of data set [2]: Pharmacokinetic study in rats after intragastrical administration. Format: in vivo. The following applies: male, rat, plasma, po, SD rats; for AUC(0-t): read-out: AUC0-24 h. The procedure: Example 55: Pharmacokinetic Study in Rats
Instruments: XEVO TQ-S LC/MS instrument produced by Waters. All measurement data is collected and processed by Masslynx V4.1 software, and the data is calculated and processed by Microsoft Excel. Using WinNonLin 8.0 software, the statistical moment method was used to calculate the pharmacokinetic parameters. Mainly include kinetic parameters Tmax, T1/2, Cmax, AUClast etc. […] Injection volume: 5 μL.
Animals: 3 male SD rats with a weight range of 200-220 g. After purchase, they will be kept in the laboratory of the Experimental Animal Center for 2 days and then used. They will be fasted for 12 hours predose and 4 hours after dosing. Drinking water is free during the test. After the rats were gavage, blood samples were taken according to the established time point.
Solvent: 0.5% Methylcellulose (aqueous solution containing 0.4% Tween 80 and 1% ethanol). Preparation of the solution for intragastrical administration: accurately weigh the compound, add it to the solvent, and ultrasonically at room temperature for 5 minutes to completely dissolve the drug, and prepare a 0.3 mg/ml medicinal solution.
Pharmaceutical samples: representative compounds of the structure shown in the patented formula (I) of the present invention, generally, multiple samples with similar structures (with a molecular weight difference of more than 2 units) are taken, accurately weighed, and administered together (cassette PK). In this way, multiple compounds can be screened at the same time and their oral absorption rates can be compared. A single administration was also used to study the pharmacokinetics of the drug sample in rats.
After intragastrical administration, blood was taken from the orbit at 0.25, 0.5, 1, 2, 4, 9, 12 and 24 hours, and placed in a plastic centrifuge tube pretreated with sodium heparin. After centrifugation, the supernatant plasma was used for LC-MS/MS analysis.
Accurately weigh the compounds to prepare different concentrations, perform quantitative analysis on mass spectrometry to establish a standard curve, and then test the concentration of the above-mentioned compound in the plasma to obtain the compound concentration at different time points. All measurement data are collected and processed by relevant software, and the statistical moment method is used to calculate the pharmacokinetic parameters (mainly including kinetic parameters Tmax, T1/2, Cmax, AUClast etc). The results are as follows:
Table 7: Pharmacokinetic Parameters of the Compounds after Intragastrical Administration in SD Rats

EGFR (C797S), sequence (P00533 25-1210 C797S): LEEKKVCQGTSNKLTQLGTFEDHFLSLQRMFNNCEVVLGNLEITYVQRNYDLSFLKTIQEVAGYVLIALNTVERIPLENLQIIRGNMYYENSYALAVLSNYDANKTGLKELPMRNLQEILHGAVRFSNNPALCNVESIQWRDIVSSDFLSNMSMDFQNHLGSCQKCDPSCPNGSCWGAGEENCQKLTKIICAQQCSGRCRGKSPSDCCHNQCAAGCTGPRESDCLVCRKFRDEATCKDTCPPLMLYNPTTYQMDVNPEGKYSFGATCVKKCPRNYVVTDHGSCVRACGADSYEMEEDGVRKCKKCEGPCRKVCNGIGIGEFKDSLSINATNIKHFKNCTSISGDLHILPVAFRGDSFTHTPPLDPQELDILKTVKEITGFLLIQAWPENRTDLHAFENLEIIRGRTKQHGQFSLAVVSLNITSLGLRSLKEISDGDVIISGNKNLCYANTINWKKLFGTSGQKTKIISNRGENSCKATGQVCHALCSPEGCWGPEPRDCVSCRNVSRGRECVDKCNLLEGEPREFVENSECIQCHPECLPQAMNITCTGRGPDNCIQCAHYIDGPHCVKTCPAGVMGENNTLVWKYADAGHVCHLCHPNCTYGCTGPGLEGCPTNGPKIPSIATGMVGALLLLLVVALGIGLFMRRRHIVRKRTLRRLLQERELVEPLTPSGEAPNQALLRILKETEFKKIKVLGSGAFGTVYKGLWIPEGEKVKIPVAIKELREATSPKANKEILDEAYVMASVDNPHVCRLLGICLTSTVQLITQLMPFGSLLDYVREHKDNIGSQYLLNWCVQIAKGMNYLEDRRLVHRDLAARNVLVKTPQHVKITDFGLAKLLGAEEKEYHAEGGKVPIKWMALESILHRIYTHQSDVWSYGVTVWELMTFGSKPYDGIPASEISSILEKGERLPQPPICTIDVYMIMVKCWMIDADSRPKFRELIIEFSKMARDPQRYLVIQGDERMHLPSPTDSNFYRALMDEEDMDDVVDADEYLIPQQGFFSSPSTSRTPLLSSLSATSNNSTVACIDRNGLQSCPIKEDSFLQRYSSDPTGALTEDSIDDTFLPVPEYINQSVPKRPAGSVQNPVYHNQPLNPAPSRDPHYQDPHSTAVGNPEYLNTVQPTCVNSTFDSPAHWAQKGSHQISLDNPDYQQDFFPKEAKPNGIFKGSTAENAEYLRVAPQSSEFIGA
MAP4K1 (HPK1), sequence (Q92918 whole entry): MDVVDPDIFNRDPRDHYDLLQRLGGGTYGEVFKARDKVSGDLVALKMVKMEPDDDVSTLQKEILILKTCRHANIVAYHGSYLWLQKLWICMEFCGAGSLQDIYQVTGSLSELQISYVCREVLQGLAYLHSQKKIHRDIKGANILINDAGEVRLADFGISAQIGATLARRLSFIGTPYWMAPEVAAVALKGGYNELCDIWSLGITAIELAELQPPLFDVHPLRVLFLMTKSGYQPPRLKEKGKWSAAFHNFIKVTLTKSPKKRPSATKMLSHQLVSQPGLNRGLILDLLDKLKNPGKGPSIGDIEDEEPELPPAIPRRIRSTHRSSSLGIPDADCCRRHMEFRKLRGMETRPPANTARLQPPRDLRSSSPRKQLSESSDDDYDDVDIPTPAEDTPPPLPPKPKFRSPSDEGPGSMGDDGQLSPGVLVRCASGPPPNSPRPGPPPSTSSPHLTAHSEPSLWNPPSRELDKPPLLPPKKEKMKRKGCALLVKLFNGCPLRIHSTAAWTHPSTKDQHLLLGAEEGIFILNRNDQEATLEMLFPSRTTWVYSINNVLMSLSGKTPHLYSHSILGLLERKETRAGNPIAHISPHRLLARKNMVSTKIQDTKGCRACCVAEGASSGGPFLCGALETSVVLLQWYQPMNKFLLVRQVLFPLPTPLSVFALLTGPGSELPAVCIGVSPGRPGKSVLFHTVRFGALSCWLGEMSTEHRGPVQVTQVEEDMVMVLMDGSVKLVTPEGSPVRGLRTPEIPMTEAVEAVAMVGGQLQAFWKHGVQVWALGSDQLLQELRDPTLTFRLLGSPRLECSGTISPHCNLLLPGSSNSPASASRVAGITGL
Ba/F3_EGFR del19/T790M/C797S cells, sequence (P00533 with tags, fused parts or gaps DEL746-750/T790M/C797S, form open): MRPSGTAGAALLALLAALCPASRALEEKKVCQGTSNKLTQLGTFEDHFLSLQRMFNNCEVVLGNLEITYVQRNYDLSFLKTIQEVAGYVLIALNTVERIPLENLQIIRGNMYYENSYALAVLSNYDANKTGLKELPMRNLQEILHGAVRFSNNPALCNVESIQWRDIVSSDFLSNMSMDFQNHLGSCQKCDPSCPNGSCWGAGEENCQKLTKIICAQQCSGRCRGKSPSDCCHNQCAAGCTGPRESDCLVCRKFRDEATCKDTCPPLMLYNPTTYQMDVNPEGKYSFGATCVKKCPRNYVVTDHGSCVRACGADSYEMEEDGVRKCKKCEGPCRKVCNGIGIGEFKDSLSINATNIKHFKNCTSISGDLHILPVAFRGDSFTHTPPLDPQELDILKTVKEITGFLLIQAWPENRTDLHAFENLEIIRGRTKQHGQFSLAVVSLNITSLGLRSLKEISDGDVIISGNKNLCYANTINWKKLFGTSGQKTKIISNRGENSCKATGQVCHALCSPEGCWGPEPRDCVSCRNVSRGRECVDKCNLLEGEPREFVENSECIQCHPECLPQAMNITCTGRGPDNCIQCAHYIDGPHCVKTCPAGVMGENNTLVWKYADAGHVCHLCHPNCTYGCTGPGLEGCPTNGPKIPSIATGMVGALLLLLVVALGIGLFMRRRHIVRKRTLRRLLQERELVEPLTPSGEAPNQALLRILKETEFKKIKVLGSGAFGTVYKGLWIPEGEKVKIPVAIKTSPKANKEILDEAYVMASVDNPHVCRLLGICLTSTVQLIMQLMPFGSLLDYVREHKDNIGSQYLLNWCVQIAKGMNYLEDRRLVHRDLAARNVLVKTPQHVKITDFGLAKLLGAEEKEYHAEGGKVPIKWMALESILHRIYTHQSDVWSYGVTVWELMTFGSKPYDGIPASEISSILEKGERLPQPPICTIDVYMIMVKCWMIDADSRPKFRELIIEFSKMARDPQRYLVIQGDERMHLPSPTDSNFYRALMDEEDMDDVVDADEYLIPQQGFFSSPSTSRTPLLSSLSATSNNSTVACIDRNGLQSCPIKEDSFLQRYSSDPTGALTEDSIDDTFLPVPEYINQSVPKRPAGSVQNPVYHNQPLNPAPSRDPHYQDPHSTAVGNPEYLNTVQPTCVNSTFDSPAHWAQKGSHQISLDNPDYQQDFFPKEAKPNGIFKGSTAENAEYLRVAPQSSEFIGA
ALK, sequence (Q9UM73 19-1620): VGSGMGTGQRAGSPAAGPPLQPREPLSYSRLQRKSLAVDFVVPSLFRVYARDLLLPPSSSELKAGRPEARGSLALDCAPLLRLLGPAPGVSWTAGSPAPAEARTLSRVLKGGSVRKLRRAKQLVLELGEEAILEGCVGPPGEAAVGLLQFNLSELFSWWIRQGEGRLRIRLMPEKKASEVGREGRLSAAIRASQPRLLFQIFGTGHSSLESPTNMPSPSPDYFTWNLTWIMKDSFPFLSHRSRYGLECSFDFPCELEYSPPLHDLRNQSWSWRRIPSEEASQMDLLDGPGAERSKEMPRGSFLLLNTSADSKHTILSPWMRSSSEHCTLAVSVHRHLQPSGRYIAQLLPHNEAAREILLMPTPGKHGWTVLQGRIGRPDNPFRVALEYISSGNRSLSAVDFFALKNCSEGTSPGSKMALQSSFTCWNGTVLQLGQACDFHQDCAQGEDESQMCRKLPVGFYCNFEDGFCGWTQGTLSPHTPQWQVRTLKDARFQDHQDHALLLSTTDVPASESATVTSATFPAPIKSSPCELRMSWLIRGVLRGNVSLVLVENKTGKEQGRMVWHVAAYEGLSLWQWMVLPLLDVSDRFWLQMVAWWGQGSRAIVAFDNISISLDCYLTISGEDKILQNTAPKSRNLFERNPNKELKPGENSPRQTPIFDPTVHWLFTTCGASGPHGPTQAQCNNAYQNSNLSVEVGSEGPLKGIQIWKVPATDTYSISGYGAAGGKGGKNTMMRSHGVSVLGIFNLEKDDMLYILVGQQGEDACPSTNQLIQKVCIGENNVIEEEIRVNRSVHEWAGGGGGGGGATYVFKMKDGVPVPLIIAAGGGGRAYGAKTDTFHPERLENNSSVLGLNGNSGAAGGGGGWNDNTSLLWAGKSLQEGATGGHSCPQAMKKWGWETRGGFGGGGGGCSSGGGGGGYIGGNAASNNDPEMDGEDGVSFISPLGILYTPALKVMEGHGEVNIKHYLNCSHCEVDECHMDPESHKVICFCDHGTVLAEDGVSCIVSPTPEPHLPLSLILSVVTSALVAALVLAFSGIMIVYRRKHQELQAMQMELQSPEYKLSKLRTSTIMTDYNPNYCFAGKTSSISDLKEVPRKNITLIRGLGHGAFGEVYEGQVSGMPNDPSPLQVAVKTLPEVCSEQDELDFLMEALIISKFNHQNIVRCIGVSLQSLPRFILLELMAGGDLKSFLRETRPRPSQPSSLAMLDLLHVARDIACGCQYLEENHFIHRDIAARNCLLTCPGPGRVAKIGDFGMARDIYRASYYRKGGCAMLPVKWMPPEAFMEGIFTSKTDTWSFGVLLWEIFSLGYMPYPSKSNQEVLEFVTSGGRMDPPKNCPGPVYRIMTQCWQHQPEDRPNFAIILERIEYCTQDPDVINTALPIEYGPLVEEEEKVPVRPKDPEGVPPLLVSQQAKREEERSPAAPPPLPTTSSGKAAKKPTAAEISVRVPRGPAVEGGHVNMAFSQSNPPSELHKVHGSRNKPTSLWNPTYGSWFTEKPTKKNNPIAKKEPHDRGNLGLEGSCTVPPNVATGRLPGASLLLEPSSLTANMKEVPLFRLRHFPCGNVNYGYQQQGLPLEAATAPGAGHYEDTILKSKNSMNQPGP

Turning to `CP(C)(=O)c1ccccc1Nc1nc(Nc2ccc3c(c2)OC[C@H]2COCCN32)ncc1Cl` [Compound 12R], the figures for the IC50 at ALK, on MAP4K1 (HPK1) and against EGFR (C797S) were 50 to 250 nM, at most 1 nM and 50 to 250 nM, respectively. Further, in data set [1], the GI50 lay in the range of 20 to 100 nM.

As to `Cc1cc(Nc2ncc(Cl)c(Nc3ccccc3P(C)(C)=O)n2)cc2c1OC[C@H]1CNCCN21` [Compound 24R], in data set [1], the GI50 lay in the range of 20 to 100 nM. In addition, the results for the IC50 on EGFR (T790M/L858R/C797S) and on MAP4K1 (HPK1) were 3 to 15 nM and 1 to 10 nM, respectively.

Take `CP(C)(=O)c1ccccc1Nc1nc(Nc2ccc3c(c2)OC[C@H]2CN(c4cccnc4)CCN32)ncc1Cl` [Compound 15R]: the concentration for half-maximal inhibition (IC50) on ALK is 50 to 250 nM; at MAP4K1 (HPK1), 1 to 10 nM; at EGFR (C797S), 50 to 250 nM.

Turning to `CN1CCN2c3ccc(Nc4ncc(Cl)c(Nc5ccccc5P(C)(C)=O)n4)cc3OC[C@H]2C1` [Compound 1R], the half-inhibitory concentration (IC50) at ALK lay in the range of 1 to 50 nM. Moreover, the GI50 in data set [1] was under 20 nM. Further, in data set [2] (4 mg/kg), the Cmax worked out at 23.1 ng/mL, the time of peak concentration (Tmax) came to 1.08 h, the half-life was 12.7 h and the AUC(0-t) was determined as 102 ng·h/mL. On EGFR (C797S), this compound had an IC50 of 1 to 50 nM.

`CN(C)CCN1CCN2c3ccc(Nc4ncc(Cl)c(Nc5ccccc5P(C)(C)=O)n4)cc3OC[C@H]2C1` [Compound 14R]: the IC50 at ALK fell in the range of 50 to 250 nM; on MAP4K1 (HPK1), 1 to 10 nM; against EGFR (C797S) it was 50 to 250 nM. The GI50 in data set [1] is 100 to 200 nM.

Regarding `Cc1cc(Nc2ncc(Cl)c(Nc3ccccc3P(C)(C)=O)n2)cc2c1N1CCNC[C@H]1CO2` [Compound 23S], in data set [1], the GI50 was under 20 nM. Besides, the half-inhibitory concentration (IC50) on EGFR (T790M/L858R/C797S) is under 3 nM; at MAP4K1 (HPK1) it was at most 1 nM.

In the case of `C=CC(=O)Nc1cc(Nc2ncc(Cl)c(Nc3ccccc3P(C)(C)=O)n2)cc2c1N1CCN(C)C[C@@H]1CO2` [Compound 29R], the GI50 in data set [1] was in the range of 20 to 100 nM. For the same compound, the IC50 on EGFR (T790M/L858R/C797S) is 3 to 15 nM; at MAP4K1 (HPK1), at most 1 nM.

Regarding `CN(C)C/C=C/C(=O)N1CCN2c3ccc(Nc4ncc(Cl)c(Nc5ccccc5P(C)(C)=O)n4)cc3OC[C@H]2C1` [Compound 18R], the GI50 in data set [1] lay in the range of 100 to 200 nM. The IC50 on EGFR (T790M/L858R/C797S) was under 3 nM; on MAP4K1 (HPK1) it was at most 1 nM.

Regarding `CP(C)(=O)c1ccccc1Nc1nc(Nc2ccc3c(c2)OC[C@H]2CN(C4CCNCC4)CCN32)ncc1Cl` [Compound 21R], the GI50 in data set [1] was over 200 nM. Moreover, the values for the IC50 at EGFR (T790M/L858R/C797S) and on MAP4K1 (HPK1) were under 3 nM and at most 1 nM, respectively.

As to `CC(=O)N1CCC(N2CCN3c4c(C)cc(Nc5ncc(Cl)c(Nc6ccccc6P(C)(C)=O)n5)cc4OC[C@@H]3C2)CC1` [Compound 32S], the GI50 in data set [1] lay in the range of 20 to 100 nM. For the same compound, the IC50 on EGFR (T790M/L858R/C797S) is under 3 nM. Besides, in data set [2] (3 mg/kg), the peak level (Cmax) was 352 ng/mL, the Tmax is 3.33 h, the half-life is 2.22 h and the AUC(0-t) is 3260 ng·h/mL. In addition, the half-maximal inhibitory concentration (IC50) on MAP4K1 (HPK1) was at most 1 nM.

In the case of `CP(C)(=O)c1ccccc1Nc1nc(Nc2ccc3c(c2)OC[C@H]2CN(c4ccccc4)CCN32)ncc1Cl` [Compound 16R], the IC50 on ALK was 50 to 250 nM; on EGFR (T790M/L858R/C797S), 15 to 100 nM; on MAP4K1 (HPK1), 1 to 10 nM; against EGFR (C797S), 50 to 250 nM.

Regarding `C=CC(=O)N1CCC(N2CCN3c4ccc(Nc5ncc(Cl)c(Nc6ccccc6P(C)(C)=O)n5)cc4OC[C@H]3C2)CC1` [Compound 22R], the GI50 in data set [1] is under 20 nM. The concentration for half-maximal inhibition (IC50) was 3 to 15 nM on EGFR (T790M/L858R/C797S) and at most 1 nM on MAP4K1 (HPK1).
